# Reference: patent US7314858B2, “Retrocyclins: antiviral and antimicrobial peptides” (priority 2001, dated 2008)
# pIC50: −log10 of the molar value. “Also recorded” adds a separate entry of the source. Read-outs that look alike come from different tables or passages of the source. Where a SMILES comes first, the peptide text is derived from it. Bridges are numbered along the chain shown (N, C = ends).
# Key:
# HIV-1 strain JR-CSF = test: HIV-1 JR-CSF infection of CD4+ PBMC, p24 antigen ELISA; type: cell-based; conditions: JR-CSF (R5), peptide 10-20 μg/ml
# Description: FIG. 5A-C. Anti-HIV-1 activity of retrocyclin. Two strains of HIV-1 and two types of human target cells were used. The IIIB strain is T-cell tropic (X4) and utilizes the CXCR4 co-receptor for entry; the JR-CSF strain is M-tropic (R5) and uses CCR5 for entry. PBMC signifies CD4^+-selected peripheral blood mononuclear cells. […] (A) Two concentrations of retrocyclin (2 μg/ml, 20 μg/ml), 20 μg/ml of the Rhesus circular defensin “RTD-1”, and 20 μg/ml of a horseshoe crab-derived peptide “T140”, reported to only prevent X4 infections, were tested in antiviral assays of against strain IIIB in H9 cells (n=2-6 per peptide; error bars indicate SEM). (B) To confirm our results with primary human cells, similar assays were performed utilizing IIIB virus and CD4^+ PBMC or (C) JR-CSF virus and CD4^+ PBMC. Peptides were not cytotoxic at indicated concentrations, measured by trypan blue exclusion. Average of duplicate experiments are reported for studies with PBMCs. Assay sensitivity=10 pg/ml.
# Either HIV-1-permissive H9 cells were used as targets, or primary CD4^+ lymphocytes from HIV-1-seronegative donors generated from freshly purified peripheral blood mononuclear cells (PBMC) stimulated with a CD3-CD8 bispecific monoclonal antibody. After approximately 7 days, when 98% of these cells co-expressed CD3 and CD4, they were infected with HIV-1 with or without retrocyclin or other test peptide. These cells were maintained in RPMI containing 10% FCS supplemented with 2 mM glutamine, 100 U of penicillin/ml, 10 μg of streptomycin/ml, and 50 U of interleukin 2/ml (R10-50 media).
# The p24 assay results shown in FIG. 9 are on a logarithmic scale. A horizontal reference line that passes through 100 on the ordinate scale corresponds to […] of p24 antigen. Results from 3 experiments (each performed with PBMC from a different donor) are shown.
# primary HIV-1 isolates = conditions: for pIC50: read-out: mean IC50; for pIC50 / mean IC50: seven subtype B strains
# Source text: Viral isolates. Primary HIV-1 isolates were obtained from Institutional Review Board-approved Centers for Disease Control and Prevention (CDC) Studies or from the National Institutes of Health Research and Reference Reagent Program and World Health Organization collaborative network. Detailed characteristics of the CDC isolates, including subtype determination based on the envelope region, and co-receptor usage using GHOST cell lines have been described elsewhere. For viruses obtained from the NIH Research and Reference Reagent Program, the reported subtype and co-receptor data were used as supplied. Viral stocks were generated by infecting CD8-depleted normal human peripheral blood mononuclear cells. After filtration through 0.22-μm filters, aliquots of the stocks were stored at −70° C. until used.
# Reporter gene-based viral replication assay. JC53-BL cells, an HIV-1 reporter cell line derived from HeLa cells that expresses high levels of CD4 and the HIV co-receptors CXCR4 and CCR5, were a gift of Tranzyme Inc. (Birmingham, Ala.). The JC53-BL cells contain cassettes for luciferase and β-galactosidase, each driven by the HIV-1 LTR. HIV infection (tat production) can be detected either by measuring luciferase activity or by counting blue foci after staining the cells with “X-Gal” (5-Bromo-4-chloro-3-indolyl β-D-galactopyranoside), as described elsewhere in detail. The JC53-BL cells were maintained in Dulbecco's modified Eagle medium supplemented with 10% fetal calf serum. (HyClone, Logan, Utah), 2 mM glutamine (Gibco), 100 units per ml penicillin G and 100 μg/ml streptomycin (GIBCO™, Invitrogen Corp., San Diego, Calif.). Viral titers were determined by adding serial dilutions of the virus stocks, in triplicate, to wells containing 20,000 JC53-BL cells, after supplementing the above medium with 40 μg/ml DEAE (diethylaminoethyl)-dextran. After a 48 hour incubation at 37° C. in 5% CO2, the cells were fixed and stained for β galactosidase, and the blue foci were counted with a light microscope. Multiplicity of infection (MOI) values were taken from the infectious unit data.
# In vitro infections were carried out in the presence or absence of θ-defensin peptides. Briefly, JC53-BL cells were harvested from T-150 flasks approximately 18 hours prior to starting the assay with 0.1 mM EDTA in 0.017 M PBS, pH 7.4. The cells were washed and transferred to sterile white 96-well plates (Thermo Labsystems, Franklin, Mass.) at a density of 20,000 cells in 50 μl of medium. […] After this 3-hour preincubation with peptides, viruses were added in media containing 40 μg/ml DEAE-dextran. The final volume was 200 μl per well, and the multiplicity of infection (viruses/cell) ranged from 0.009 to 0.65. After the plates had incubated at 37° C. in 5% CO2 for 48 hours, luciferase activity was measured with the Steady-Glo Luciferase Assay System (Promega, Madison, Wis.), using the manufacturer's lysis protocol. Relative light intensity was measured with a Tecan luminometer running Magellan software (Tecan, Research Triangle Park, N.C.) and reported as relative light units (RLU). Each plate contained three sets of quadruplicate controls: media-only (background), virus-only (peptide-free), and recombinant luciferase. Samples were run in duplicate and the % inhibition was calculated from the mean values using the formula: % Inhibition=1−(average RLU peptide+virus wells/average RLU virus only wells)×100.
# Fifty-percent inhibitory concentration values (IC50) were calculated using the predicted exponential growth function in Microsoft Excel, which uses known x-y values to estimate a given x value (in this case concentration of peptide) that would correspond to a given y value (in this case IC50). Statistical comparisons were by paired t-tests, unless otherwise noted.
# CD4+ PBMC = conditions: for average number of cells: 20 μg/ml peptide, CD4+ PBMC; for cytotoxicity (trypan blue exclusion): 20 μg/ml, HIV-1-infected CD4+ PBMC
# H9 cells = test: Cytotoxicity by trypan blue exclusion; conditions: for cytotoxicity (trypan blue exclusion): 20 μg/ml, HIV-1-infected H9 cells
# [1] = isolate 92BR023, subtype C/B, R5
# [2] = isolate 92HT593, Haiti, subtype B, X4
# [3] = isolate 92RW009, subtype C/A, R5/X4
# [4] = isolate 92UG005, Uganda, subtype D, R5
# [5] = isolate 93TH060, Thailand, CRF01-AE, R5
# [6] = isolate 93UG053, Uganda, subtype D, R5
# [7] = isolate 93US151, USA, subtype B, X4
# [8] = isolate 98CN009, China, subtype C, R5
# [9] = isolate 98TZ017, Tanzania, subtype C, R5
# [10] = isolate 5157-1326, USA, subtype B, R5
# [11] = isolate 192431, Nigeria, subtype C, X4
# [12] = isolate 193358, Nigeria, subtype C, R5
# [13] = isolate 196531, Cameroon, subtype A, R5
# [14] = isolate 196554, Senegal, subtype A, R5
# [15] = isolate HM14, Thailand, CRF01-AE, X4
SMILES,inhibition of HIV-1 replication (p24) (HIV-1 strain JR-CSF),"IC50 (mean±SEM, n=8) (primary HIV-1 isolates)",IC50 Concentrations (primary HIV-1 isolates; [1]),IC50 Concentrations (primary HIV-1 isolates; [2]),IC50 Concentrations (primary HIV-1 isolates; [3]),IC50 Concentrations (primary HIV-1 isolates; [4]),IC50 Concentrations (primary HIV-1 isolates; [5]),IC50 Concentrations (primary HIV-1 isolates; [6]),IC50 Concentrations (primary HIV-1 isolates; [7]),IC50 Concentrations (primary HIV-1 isolates; [8]),IC50 Concentrations (primary HIV-1 isolates; [9]),IC50 Concentrations (primary HIV-1 isolates; [10]),IC50 Concentrations (primary HIV-1 isolates; [11]),IC50 Concentrations (primary HIV-1 isolates; [12]),IC50 Concentrations (primary HIV-1 isolates; [13]),IC50 Concentrations (primary HIV-1 isolates; [14]),IC50 Concentrations (primary HIV-1 isolates; [15]),pIC50 (primary HIV-1 isolates),mean IC50 (primary HIV-1 isolates),cytotoxicity (trypan blue exclusion) (CD4+ PBMC),other results
"CC[C@H](C)[C@@H]1NC(=O)CNC(=O)[C@H](CCCNC(=N)N)NC(=O)CNC(=O)[C@@H]2CSSC[C@H](NC1=O)C(=O)N[C@@H](CCCNC(=N)N)C(=O)N[C@H]1CSSC[C@H](NC(=O)[C@H](CCCNC(=N)N)NC(=O)[C@@H]3CSSC[C@H](NC(=O)[C@H]([C@@H](C)CC)NC1=O)C(=O)NCC(=O)N[C@@H](CCCNC(=N)N)C(=O)NCC(=O)N[C@@H]([C@@H](C)CC)C(=O)N3)C(=O)N[C@@H]([C@@H](C)CC)C(=O)N2 [RC-100, Retrocyclin] (cyclo(GICRCICGRGICRCICGR); disulfide 3-16, 5-14, 7-12)",complete suppression; also recorded: uniformly protective,7.79 ± 1.16 µg/mL,4.71 µg/mL,5.73 µg/mL,8.72 µg/mL,5.18 µg/mL,7.39 µg/mL,6.38 µg/mL,1.69 µg/mL,>10 µg/mL,>10 µg/mL,4.64 µg/mL,5.18 µg/mL,>10 µg/mL,>10 µg/mL,5.73 µg/mL,3.09 µg/mL,~5.59,approximately 5.0 μg/ml,neither 20 μg/ml retrocyclin nor RC-101 were cytotoxic,"IC50 Concentrations (primary HIV-1 isolates; isolate 92RW024, subtype D/A, R5): 7.78 µg/mL; IC50 Concentrations (primary HIV-1 isolates; isolate 92UG037, Uganda, subtype A, R5): 1.44 µg/mL; IC50 Concentrations (primary HIV-1 isolates; isolate 92US714, USA, subtype B, R5): >10 µg/mL; IC50 Concentrations (primary HIV-1 isolates; isolate 92US727, USA, subtype B, R5): 6.46 µg/mL; IC50 Concentrations (primary HIV-1 isolates; isolate 93UG059, subtype A/D, X4): 6.65 µg/mL; IC50 Concentrations (primary HIV-1 isolates; isolate 94UG114, Uganda, subtype D, R5): 3.69 µg/mL; IC50 Concentrations (primary HIV-1 isolates; isolate 5148-1382, USA, subtype B, R5): 5.71 µg/mL; IC50 Concentrations (primary HIV-1 isolates; isolate 5157-35097, USA, subtype B, R5X4): 6.29 µg/mL; IC50 Concentrations (primary HIV-1 isolates; isolate 193317, Nigeria, subtype A, X4): >10 µg/mL; IC50 Concentrations (primary HIV-1 isolates; isolate RU132, Russia, subtype G, R5): 5.27 µg/mL; IC50 Concentrations (primary HIV-1 isolates; isolate RU570, subtype G, R5): 8.63 µg/mL; average number of cells (CD4+ PBMC; IIIB): 1.68e+06 mL⁻¹; average number of cells (CD4+ PBMC; JR-CSF): 1.58e+06 mL⁻¹; average number of cells (CD4+ PBMC; no virus): 980000 mL⁻¹; average number of cells (H9 cells; 20 μg/ml peptide, H9, IIIB): 1.2e+06 mL⁻¹; cytotoxicity (trypan blue exclusion) (H9 cells): neither 20 μg/ml retrocyclin nor RC-101 were cytotoxic"
"CC[C@H](C)[C@@H]1NC(=O)CNC(=O)[C@H](CCCCN)NC(=O)CNC(=O)[C@@H]2CSSC[C@H](NC1=O)C(=O)N[C@@H](CCCNC(=N)N)C(=O)N[C@H]1CSSC[C@H](NC(=O)[C@H](CCCNC(=N)N)NC(=O)[C@@H]3CSSC[C@H](NC(=O)[C@H]([C@@H](C)CC)NC1=O)C(=O)NCC(=O)N[C@@H](CCCNC(=N)N)C(=O)NCC(=O)N[C@@H]([C@@H](C)CC)C(=O)N3)C(=O)N[C@@H]([C@@H](C)CC)C(=O)N2 [RC-101, R9K-Retrocyclin]",as active as retrocyclin,2.93 ± 0.95 µg/mL,3.04 µg/mL,0.76 µg/mL,2.72 µg/mL,1 µg/mL,2.15 µg/mL,1.54 µg/mL,0.49 µg/mL,8.53 µg/mL,4.87 µg/mL,3.59 µg/mL,0.54 µg/mL,2.75 µg/mL,2.65 µg/mL,0.51 µg/mL,0.84 µg/mL,> 6.18,< 1.25 µg/mL,neither 20 μg/ml retrocyclin nor RC-101 were cytotoxic,"protective activity compared with retrocyclin-1 (primary HIV-1 isolates): more active than retrocyclin-1; protective activity compared with retrocyclin-1 (primary HIV-1 isolates; subtype D strains, 1.25, 2.5, 5 and 10 μg/ml): more active than retrocyclin-1; protective activity compared with retrocyclin-1 (primary HIV-1 isolates; subtype G and various recombinant viruses): greater protection than retrocyclin-1; cytotoxicity (trypan blue exclusion) (H9 cells): neither 20 μg/ml retrocyclin nor RC-101 were cytotoxic"
